Assay results taken from PMC6434714 (Journal of natural products, 2018).
≈ marks a conversion by molar mass, not a printed value.

Experiments:
[1] = system: S. aureus subsp. aureus (Newman strain); assay: Antimicrobial activity; conditions: for activity against S. aureus (in words): growth inhibition
Staphylococcal = conditions: cited from earlier work
E. coli imp mutant = conditions: cited from earlier work
[2] = biological target: A. aeolicus MraY (AaMraY) (Aquifex aeolicus, UniProt O66465); assay: Fluorescence-based in vitro MraY assay, A. aeolicus MraY; assay type: biochemical
A. aeolicus MraY (AaMraY), sequence (O66465 whole entry): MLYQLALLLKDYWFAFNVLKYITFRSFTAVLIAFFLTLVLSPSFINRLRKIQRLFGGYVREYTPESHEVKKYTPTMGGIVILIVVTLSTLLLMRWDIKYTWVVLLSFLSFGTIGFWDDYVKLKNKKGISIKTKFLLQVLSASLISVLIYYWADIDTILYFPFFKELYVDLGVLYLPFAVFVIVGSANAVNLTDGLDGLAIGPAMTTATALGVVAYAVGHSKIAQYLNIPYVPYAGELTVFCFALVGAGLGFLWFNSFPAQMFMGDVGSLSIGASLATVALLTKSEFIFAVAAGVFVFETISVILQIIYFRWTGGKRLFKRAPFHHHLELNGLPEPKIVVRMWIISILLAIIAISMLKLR

S. aureus = conditions: cited from earlier work

SMILES: CO[C@H]1[C@H](O[C@H]([C@H]2O[C@@H](n3ccc(=O)[nH]c3=O)[C@H](O)[C@@H]2O)[C@H](NCCCNC(=O)[C@@H](NC(=O)[C@@H](NC(=O)N[C@H](C(=O)O)C(C)C)[C@@H]2CCNC(=N)N2)[C@@H](O)C(C)C)C(=O)O)O[C@H](CNC(C)=O)[C@H]1O [Compound 3, 16-N-acetyl-muraymycin C1]
- activity against S. aureus (in words) [1]: inactive

SMILES: CO[C@H]1[C@H](O[C@H]([C@H]2O[C@@H](n3ccc(=O)[nH]c3=O)[C@H](O)[C@@H]2O)[C@H](NCCCNC(=O)[C@@H](NC(=O)[C@@H](NC(=O)N[C@H](C(=O)O)C(C)C)[C@@H]2CCNC(=N)N2)[C@@H](O)C(C)C)C(=O)O)O[C@H](CN)[C@H]1O [muraymycin C1]
- activity against S. aureus (in words) [1]: inactive

SMILES: CO[C@H]1[C@H](O[C@H]([C@H]2O[C@@H](n3ccc(=O)[nH]c3=O)[C@H](O)[C@@H]2O)[C@H](NCCCNC(=O)[C@@H](NC(=O)[C@@H](NC(=O)N[C@H](C(=O)O)C(C)C)[C@@H]2CCNC(=N)N2)[C@@H](OC(=O)CCCCCCCCCCCCN(O)C(=N)N)C(C)C)C(=O)O)O[C@H](CN)[C@H]1O [Muraymycin A1]
- MIC against Staphylococcal (Staphylococcal): 2 to 16 µg/mL
- MIC against E. coli imp mutant (E. coli imp mutant): < 0.03 µg/mL

SMILES: CO[C@H]1[C@H](O[C@H]([C@H]2O[C@@H](n3ccc(=O)[nH]c3=O)[C@H](O)[C@@H]2O)[C@H](NCCCNC(=O)[C@@H](NC(=O)[C@@H](NC(=O)N[C@H](C(=O)O)C(C)C)[C@@H]2CCNC(=N)N2)[C@@H](OC(=O)CCCCCCCCCCCCC(C)C)C(C)C)C(=O)O)O[C@H](CN)[C@H]1O [Compound 1, muraymycin B8]
- IC50 [2]: 0.068 nM
- MIC ([1]; Staphylococcus aureus, NEWMAN, 16 h, read-out: S. aureus growth inhibition MIC, Newman strain, 37 °C, 16 h): 2 to 6 µg/mL (≈ 1.69 to 5.07 µM)

SMILES: CO[C@H]1[C@H](O[C@H]([C@H]2O[C@@H](n3ccc(=O)[nH]c3=O)[C@H](O)[C@@H]2O)[C@H](NCCCNC(=O)[C@@H](NC(=O)[C@@H](NC(=O)N[C@H](C(=O)O)C(C)C)[C@@H]2CCN=C(N)N2)[C@@H](OC(=O)CCCCCCC(C)C)C(C)C)C(=O)O)O[C@H](CN)[C@H]1O [muraymycin B2]
- MIC against S. aureus (S. aureus): > 32 µg/mL

SMILES: CO[C@H]1[C@H](O[C@H]([C@H]2O[C@@H](n3ccc(=O)[nH]c3=O)[C@H](O)[C@@H]2O)[C@H](NCCCNC(=O)[C@@H](NC(=O)[C@@H](NC(=O)N[C@H](C(=O)O)C(C)C)[C@@H]2CCNC(=N)N2)[C@@H](OC(=O)CCCCCCCCCCC(C)C)C(C)C)C(=O)O)O[C@H](CN)[C@H]1O [Compound 2, muraymycin B9]
- S. aureus growth inhibition MIC ([1]; Newman strain, 37 °C, 16 h): 2 to 6 µg/mL

SMILES: CO[C@H]1[C@H](O[C@H]([C@H]2O[C@@H](n3ccc(=O)[nH]c3=O)[C@H](O)[C@@H]2O)[C@H](NCCCNC(=O)[C@@H](NC(=O)[C@@H](NC(=O)N[C@H](C(=O)O)C(C)C)[C@@H]2CCN=C(N)N2)[C@@H](OC(=O)CCCCC(C)C)C(C)C)C(=O)O)O[C@H](CN)[C@H]1O [muraymycin B6]
- MIC against S. aureus (S. aureus): > 32 µg/mL
